Values quoted from earlier work, collected in US11590100B2, “Composition for buccal or sublingual administration of cannabis extract and methods for making same” (PANAXIA PHARMACEUTICAL INDUSTRIES LTD., priority 2017, dated 2023).

In the case of CCCCCc1cc(O)c2c(c1)OC(C)(C)[C@@H]1CCC(C)=C[C@@H]21 [THC, Delta-9-tetrahydrocannabinol], the peak effect (after oral administration) is given as 2 to 4 h, the absorbed (after single oral doses) is given as 90-95% and the “administered dose reaching the systemic circulation” value (oral, first pass hepatic metabolism and poor aqueous solubility) is given as 10-20%.
